From publication PMC2189693 (The Journal of Experimental Medicine, 1988) come the findings set out here.

The subject of the test is anti-al mAb, 3-2F1. It counts as binding, mouse. To be noted: for Inhibition of binding of rabbit a1 Ig to anti-a1 antibody (in words): RIA with mAb 3-2F1, 24 h preincubation of inhibitor, result in words.

With IT_SPTTEDTAT_YFCA [RA1], the “expression of an a1 epitope (in words)” value (conclusion from peptide inhibition of al Ig binding to anti-al) is recorded as “each appear to define an al epitope”.

For the substance IGYIYPNIDDSAY_SQ [SMA1], the “Inhibition of binding of rabbit a1 Ig to anti-a1 antibody (in words)” value is “Neither the substituted peptide, SMA1, nor the control peptide, UB1, inhibited binding”.

In the case of “MQIFVKTLTGKDPGG [UB1, reference compound]”, the “Inhibition of binding of rabbit a1 Ig to anti-a1 antibody (in words)” value was “Neither the substituted peptide, SMA1, nor the control peptide, UB1, inhibited binding”.
